Data on 17 molecules can be found in PMC12818745 (ACS Chemical Neuroscience, 2025).

Usually inhibition stands for the percentage by which the read-out fell short of the control. As a reminder, the IC50 is the concentration needed to halve the response being measured. Usually Papp stands for the rate of passage across a membrane or cell layer, normalised by area and donor concentration. Read a low Papp as slow passage.

Series [1] has as its target T1, Aβ42 aggregation (Homo sapiens, UniProt P05067).
T1 construct: expressed in transfected cells; host or cells: E. coli BL21 (DE3), pET vector
The experiment in a line: Thioflavin S assay of Aβ42 aggregation in E. coli cells overexpressing Aβ42. The series is classed as cell-based, Escherichia coli. Conditions: read-out: Aβ42 inhibition %. As for the experimental part: (§1) The antiaggregating profiles of both series A and B were evaluated using a fluorescence Thioflavin S (ThS) assay in cellulo, which monitors ThS fluorescence in the presence of β-sheet-rich structures, such as Aβ and tau protein aggregates. This method, based on recombinant Escherichia coli (E. coli) bacteria overexpressing insoluble aggregates, offers a simple and cost-effective approach to model aggregation processes in mammalian systems and has been validated for use in drug discovery studies. , Compounds were tested at a screening concentration of 50 μM for their ability to inhibit Aβ42 aggregation. The results, summarized in Table , reveal distinct antiaggregating profiles between series A and B, which are once again influenced by their structural differences.
42 Amino acid Aβ42 was cloned and overexpressed in E. coli BL21 (DE3) competent cells using the pET vector harboring the DNA sequence of Aβ42. Due to the addition of the initiation codon ATG preceding genes, the resulting overexpressed peptide contained an additional methionine residue at its N-terminus. For the preparation of overnight cultures, a colony of BL21 (DE3) cells carrying the plasmid for expression was inoculated in 10 mL of M9 minimal medium supplemented with 50 μg mL^–1 kanamycin at 37 °C. Subsequently, a 1:500 dilution of the overnight culture was added to fresh M9 minimal medium containing 50 μg mL^–1 kanamycin and 25 μM ThS. The bacterial culture was then incubated at 37 °C with agitation at 250 rpm. Upon reaching an OD600 of 0.6, 980 μL of the culture was transferred into 1.5 mL Eppendorf tubes, each containing 10 μL of the compound to be tested dissolved in DMSO and 10 μL of 100 mM isopropyl 1-thio-β-D-galactopyranoside (IPTG) or, alternatively, 10 μL of water for the noninduced controls. The final compound concentration was adjusted to […]. The samples were allowed to grow overnight at 37 °C with agitation at 1400 rpm using a Thermomixer (Eppendorf). Negative controls, representing maximum amyloid presence, utilized free DMSO.
(§2) ThS (T1892) and all other chemical reagents were purchased from Sigma (St. Louis, MO). Stock solutions of ThS (250 μM) were prepared using doubly distilled water purified via a Milli-Q system (Millipore). For the fluorescence assay, ThS spectra were recorded utilizing an AmincoBowman series 2 luminescence spectrophotometer (Aminco-Bowman AB2, SLM Aminco, Rochester, NY) within the range of 460 to 600 nm at a temperature of 25 °C. The excitation wavelength employed was 445 nm, with slit widths set at 4 nm. The emission at 485 nm, corresponding to the ThS peak observed in the presence of amyloids, was recorded. To standardize ThS fluorescence relative to bacterial concentration in both in vitro and cell-based assays, the OD600 was determined using a Shimadzu UV-2401 PC UV–vis spectrophotometer. Fluorescence normalization was executed by setting the ThS fluorescence of bacterial cells expressing the peptide or protein in the absence of the drug as 100%, while that of bacterial cells not expressing the peptide or protein was established as 0%.

The target in series [2] is eeAChE (Electrophorus electricus AChE) (Electrophorus electricus, UniProt O42275). The experiment in a line: Cholinesterase inhibition assay (modified Ellman's method), eeAChE. Format: biochemical. Conditions: for SI eeAChE: ratio eqBChE IC50/eeAChE IC50. The text has this:
(§3) Compound series A and B were initially screened for their cholinesterase activity against eeAChE (Electrophorus electricus AChE) and eqBChE (equine serum butyrylcholinesterase), using an adaptation of the Ellman’s method. […]. […] Similarly, replacing the terminal triple bond in 7l with a nitrile group reduced its activity, while replacing the O-propargyl group with an N,N-dipropargyl group in 10 enhanced the inhibition of both enzymes, particularly BChE (Table ). The installation of an additional aryl ring in 7o further improved AChE inhibition, slightly increasing selectivity toward this enzyme. […]. […]. […]. The inhibitory activity of the synthesized compounds toward eeAChE and eqBChE was evaluated spectrophotometrically through a 96-well microplate modified Ellman’s method. The solutions of both enzymes were prepared as 0.025 U/mL in phosphate buffer at pH 7, from stock solutions of 5.05 U/mL and 7.50 U/mL, respectively. The stock solutions for the target compounds (0.1 M) were prepared in dimethyl sulfoxide (DMSO). […] The reaction mixture was prepared with 100 μL of the enzyme (eeAChE or eqBChE) and 50 μL of the test compound (or DMSO/water, not exceeding 0.2% of DMSO in the wells; i.e blank samples). After 5 min of the preincubation period at 37 °C, 50 μL of ATChI or BTChI and 50 μL of DTNB were added to each well, thus initiating the enzymatic reaction. The absorbance values were measured at 415 nm, for a total of 7.5 min, at every 2.5 min, using a microplate reader (Synergy multimode reader; BioTek). […]. All experiments were performed in triplicate.

Series [3] concerns the target T2, eqBChE (equine serum butyrylcholinesterase) (Equus caballus, UniProt P81908).
T2 construct: eqBChE (equine serum butyrylcholinesterase); from tissue; host or cells: equine serum
Nature of the series: Cholinesterase inhibition assay (modified Ellman's method), eqBChE. Format: biochemical.
Text: as §3
(DTNB colorimetry detects thiols as they appear.)

Series [4] addresses T3, Tau protein aggregation (Homo sapiens, UniProt P10636).
T3 construct: For the cloning and overexpression of full-length tau protein; expressed in transfected cells; host or cells: E. coli BL21 (DE3) carrying pTARA and pRKT42
Nature of the series: Thioflavin S assay of tau protein aggregation in E. coli cells overexpressing tau. The series is classed as cell-based, Escherichia coli. The following applies: read-out: Tau inhibition %. The method, then:
as §1
This strategic extension aimed to validate the chromeno[3,4-b]-xanthone scaffold for related aggregation targets, considering the structural and pathological similarities between Aβ and tau aggregation processes. […]. […] Nevertheless, it is important to interpret the results cautiously, as the inability of certain compounds to cross bacterial membranes, may have underestimated their true inhibitory activity in the assay.
For the cloning and overexpression of full-length tau protein, E. coli BL21 (DE3) competent cells were transformed first with the pTARA vector containing the RNA polymerase gene of phage T7 (T7RP), controlled by the PBAD promoter. Subsequently, E. coli BL21(DE3) competent cells containing pTARA were transformed with the pRKT42 vector encoding four repeats of tau protein in two inserts. Similar to the procedure for Aβ42, overnight cultures were prepared by inoculating colonies of BL21 (DE3) cells bearing the plasmids in M9 medium supplemented with 0.5% glucose, 50 μg mL^–1 ampicillin, and 12.5 μg mL^–1 chloramphenicol at 37 °C. Upon induction, a 1:500 dilution of the overnight culture was added to fresh M9 minimal medium containing 0.5% glucose, 50 μg mL^–1 ampicillin, 12.5 μg mL^–1 chloramphenicol, and 25 μM ThS. The subsequent steps mirrored those for the Aβ assay, including the addition of the compound to be tested dissolved in DMSO and 10 μL of 25% arabinose or, alternatively, 10 μL of water for the noninduced controls, with a final compound concentration of […]. Negative controls for tau overexpression utilized free DMSO.
as §2

The nature of series [5]: in vitro. Conditions: PAMPA, pH 7.4. The method, then:
To assess BBB permeability, a parallel artificial membrane permeability assay (PAMPA)-BBB was performed, which predicts passive BBB permeability using a brain lipid porcine membrane.
The prediction of the brain penetration was evaluated using a PAMPA-BBB. […] Next, 100 μL of these stock solutions were added to a solution of 1400 μL of EtOH and 3500 μL of PBS at pH 7.4, to reach 30% of EtOH concentration in the experiment. These solutions were filtered, using Filter PDVF membrane units (diameter 30 mm, pore size 0.45 μm, from Symta). After this, the acceptor 96-well microplate (Multiscreen, catalogue no. MAMCS9610, from Millipore) was filled with 180 μL of PBS/EtOH (70/30). […] After 5 min, 180 μL of each compound solution was added. 1–2 mg of each selected compound was dissolved in 1500 μL of EtOH and 3500 μL of PBS at pH 7.4, filtered, and then added to the donor 96-well plate to determine their ability to cross the brain barrier. After this, the donor plate was carefully put on the acceptor plate to form a “sandwich” and incubated for 2.5 h at 25 °C. During this period, the compounds diffused from the donor plate through the brain lipid membrane into the acceptor plate. Afterward, the donor plate was removed. A 96-well plate UV reader (Thermoscientific, Multiskan spectrum) was used to determine the concentration of compounds and commercial drugs in the acceptor and donor wells. Every sample was analyzed at three to five wavelengths, in three wells, and in two independent runs. […] Ten quality control compounds (previously mentioned) of known BBB permeability were included in each experiment to validate the analysis set.

The mark [6] stands for this setting: mean ± SEM, n = 3, n.a = nonactive, IC50 determined only if inhibition higher than 50% at 20 μM.

Where two headings read alike, the source gives them in different places.

Sequence of eeAChE (Electrophorus electricus AChE) (O42275 24-633): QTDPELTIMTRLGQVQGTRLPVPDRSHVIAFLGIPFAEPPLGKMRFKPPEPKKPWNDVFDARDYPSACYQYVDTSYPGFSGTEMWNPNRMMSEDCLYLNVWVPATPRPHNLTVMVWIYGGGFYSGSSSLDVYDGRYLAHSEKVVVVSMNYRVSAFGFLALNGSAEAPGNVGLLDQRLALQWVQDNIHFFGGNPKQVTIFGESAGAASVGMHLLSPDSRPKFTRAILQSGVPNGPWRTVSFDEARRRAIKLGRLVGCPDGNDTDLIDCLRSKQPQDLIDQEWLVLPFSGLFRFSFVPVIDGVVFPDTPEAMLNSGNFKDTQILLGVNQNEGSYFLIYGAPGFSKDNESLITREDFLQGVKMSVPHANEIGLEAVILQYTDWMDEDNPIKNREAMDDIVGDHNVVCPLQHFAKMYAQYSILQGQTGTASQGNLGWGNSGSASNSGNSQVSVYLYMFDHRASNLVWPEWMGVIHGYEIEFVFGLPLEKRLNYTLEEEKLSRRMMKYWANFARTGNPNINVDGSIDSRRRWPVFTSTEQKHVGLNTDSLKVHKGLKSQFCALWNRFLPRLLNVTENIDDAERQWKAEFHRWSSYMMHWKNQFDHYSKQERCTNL
T2 sequence (P81908 whole entry): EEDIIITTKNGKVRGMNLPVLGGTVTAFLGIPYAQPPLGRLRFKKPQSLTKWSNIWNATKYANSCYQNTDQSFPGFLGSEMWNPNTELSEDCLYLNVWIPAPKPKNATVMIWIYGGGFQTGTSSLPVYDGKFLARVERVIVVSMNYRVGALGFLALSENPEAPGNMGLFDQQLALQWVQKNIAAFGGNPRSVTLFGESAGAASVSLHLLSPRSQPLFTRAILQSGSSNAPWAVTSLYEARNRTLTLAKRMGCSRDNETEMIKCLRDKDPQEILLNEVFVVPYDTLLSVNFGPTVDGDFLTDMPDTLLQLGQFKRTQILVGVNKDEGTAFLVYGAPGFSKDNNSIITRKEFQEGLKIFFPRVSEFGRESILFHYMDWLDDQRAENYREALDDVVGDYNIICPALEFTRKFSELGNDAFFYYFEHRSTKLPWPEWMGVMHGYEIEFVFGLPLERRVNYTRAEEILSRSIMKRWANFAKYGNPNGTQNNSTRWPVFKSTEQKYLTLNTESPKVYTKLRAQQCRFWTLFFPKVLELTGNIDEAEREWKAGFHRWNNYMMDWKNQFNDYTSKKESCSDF
T1 sequence (P05067 672-713): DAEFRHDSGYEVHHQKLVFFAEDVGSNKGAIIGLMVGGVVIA
T3 sequence (P10636 other isoform, or with tags, fused parts or gaps): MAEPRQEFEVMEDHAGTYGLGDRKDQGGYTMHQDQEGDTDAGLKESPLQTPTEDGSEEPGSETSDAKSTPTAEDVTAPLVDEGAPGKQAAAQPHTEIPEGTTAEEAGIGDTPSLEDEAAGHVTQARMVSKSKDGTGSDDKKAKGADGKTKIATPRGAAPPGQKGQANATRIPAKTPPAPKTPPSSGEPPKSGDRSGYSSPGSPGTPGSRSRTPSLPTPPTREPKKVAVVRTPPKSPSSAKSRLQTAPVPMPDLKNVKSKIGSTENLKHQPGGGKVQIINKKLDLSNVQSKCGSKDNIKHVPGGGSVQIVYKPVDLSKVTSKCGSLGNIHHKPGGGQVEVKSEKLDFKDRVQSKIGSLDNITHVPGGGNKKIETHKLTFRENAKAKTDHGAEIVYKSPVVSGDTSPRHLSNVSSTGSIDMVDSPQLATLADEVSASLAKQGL

Turning to `C#CCOc1ccccc1/C=C/c1cc(=O)c2ccccc2o1` [Compound 7a, (E)-2-[2-(Prop-2-yn-1-yloxy)styryl]-4H-chromen-4-one], the inhibition at 50 µM in series [1] stood at 38 ± 6.2%. Moreover, the IC50 in series [2] (setting [6]) is 9.5 ± 0.3 µM.

With `COc1ccc2c(c1)-c1cc3oc4cc(OC)ccc4c(=O)c3cc1CO2` [Compound 11l, 2,11-Dimethoxy-6H,8H-chromeno[3,4-b]xanthen-8-one], the inhibition at 50 µM in series [1] was determined as 40 ± 5.1%. The half-inhibitory concentration (IC50) amounted to 9 ± 0.5 µM in series [3] and 4.8 ± 0.5 µM in series [2]. Further, the “SI eeAChE” value in series [2] is listed as 1.88.

Take `COc1ccc2c(c1)-c1cc3oc4ccccc4c(=O)c3cc1CO2` [Compound 11f, 2-Methoxy-6H,8H-chromeno[3,4-b]xanthen-8-one]: in series [1], the inhibition at 50 µM came to 36 ± 7.8%. The IC50 in series [3] was 6.1 ± 0.5 µM. In series [2], the half-inhibitory concentration (IC50) was 6.9 ± 1.5 µM and the “SI eeAChE” value was 0.88.

`O=c1c2ccccc2oc2cc3c(cc12)COc1ccc(F)cc1-3` [Compound 11i, 2-Fluoro-6H,8H-chromeno[3,4-b]xanthen-8-one]: the inhibition at 50 µM in series [1] was found to be 47 ± 8.4%; in series [4], 52 ± 6.3%.

As for `C#CCOc1ccccc1/C=C/c1cc(=O)c2ccc(OC)c(OC)c2o1` [Compound 7d, (E)-7,8-Dimethoxy-2-[2-(prop-2-yn-1-yloxy)styryl]-4H-chromen-4-one], the inhibition at 50 µM in series [1] was found to be 28 ± 1.7%. Further, in series [2] (setting [6]), the IC50 was found to be 2.4 ± 0.4 µM.

Take `COc1ccc2c(=O)c3cc4c(cc3oc2c1OC)-c1ccccc1OC4` [Compound 11d, 11,12-Dimethoxy-6H,8H-chromeno[3,4-b]xanthen-8-one]: the inhibition at 50 µM in series [1] was found to be 40 ± 6.4%. In series [3], the IC50 was 7.1 ± 0.1 µM.

On to `CCn1cc(C(=O)O)c(=O)c2cc(F)c(N3CCNCC3)nc21` [Enoxacin, reference compound], for which the Papp at 2.5 h in series [5] (pig) worked out at 1.5 ± 1.5 nm/s.

In series [5] (pig), `CNCCCN1c2ccccc2CCc2ccccc21` [Desipramine, reference compound] came in with a Papp at 2.5 h of 156 ± 17.8 nm/s.

For `COc1ccc2c(c1)-c1cc3oc4cccc(OC)c4c(=O)c3cc1CO2` [Compound 11m, 2,9-Dimethoxy-6H,8H-chromeno[3,4-b]xanthen-8-one], in series [1], the inhibition at 50 µM came out at 30 ± 6.6%. The IC50 in series [3] is 7.3 ± 0.4 µM.

Molecule `CN(C)CCCN1c2ccccc2Sc2ccccc21` [Promazine, reference compound] registered a Papp at 2.5 h in series [5] of 154 ± 9.1 nm/s.

Take `O=c1c2ccccc2oc2cc3c(cc12)COc1ccc(OC(F)(F)F)cc1-3` [Compound 11h, 2-(Trifluoromethoxy)-6H,8H-chromeno[3,4-b]xanthen-8-one]: the inhibition at 50 µM in series [1] amounted to 41 ± 6.4%. In addition, in series [3], the IC50 was determined as 6.2 ± 0.7 µM. In addition, in series [2], the IC50 turned out to be 4 ± 1.2 µM and the “SI eeAChE” value amounted to 1.55.

Regarding `Cc1ccc(C#CCOc2ccccc2/C=C/c2cc(=O)c3ccccc3o2)cc1` [Compound 7o, (E)-2-(2-{[3-(4-methylphenyl)prop-2-yn-1-yl]oxy}styryl)-4H-chromen-4-one], in series [1], the inhibition at 50 µM was determined as 37 ± 2%. Moreover, the half-inhibitory concentration (IC50) in series [2] (setting [6]) was determined as 2.9 ± 0.5 µM.

In series [5] (pig), `CN1C(C(=O)Nc2ccccn2)=C(O)c2ccccc2S1(=O)=O` [Piroxicam, reference compound] registered a Papp at 2.5 h of 1.9 ± 0.2 nm/s.

`O=c1c2ccccc2oc2cc3c(cc12)COc1ccccc1-3` [Compound 11a, 6H,8H-Chromeno[3,4-b]xanthen-8-one]: in series [1], the inhibition at 50 µM stood at 15 ± 4.6%. Moreover, the half-inhibitory concentration (IC50) in series [2] (setting [6]) is 2.1 ± 0.2 µM.

Regarding `COc1ccc2c(=O)c3cc4c(cc3oc2c1)-c1c(ccc2ccccc12)OC4` [Compound 12b], the inhibition at 50 µM in series [1] was 54 ± 6.2%; in series [4], 57 ± 7%.

For the molecule `COc1cc(OC)c2c(=O)c3cc4c(cc3oc2c1)-c1ccccc1OC4` [Compound 11e, 9,11-Dimethoxy-6H,8H-chromeno[3,4-b]xanthen-8-one], the inhibition at 50 µM in series [1] was 36 ± 4.4%. Besides, in series [3], the IC50 was found to be 9.4 ± 0.2 µM.

For the molecule `COc1ccc2c(=O)c3cc4c(cc3oc2c1)-c1ccccc1OC4` [Compound 11b, 11-Methoxy-6H,8H-chromeno[3,4-b]xanthen-8-one], the inhibition at 50 µM in series [1] came to 22 ± 2.7%. In addition, in series [2] (setting [6]), the IC50 amounted to 3.9 ± 0.9 µM.
